Drawing on PubChem BioAssay (NCI), this text covers GI50 and TGI for seven compounds.

What all share (experiment): inhibition of tumour cell growth, NCI panel, 48 h
Experiment [1] has as its system HCT-15 colon.
In experiment [2] the test system is A549 NSCLC.
For experiment [3], the system named is OVCAR-3 ovarian.
Experiment [4] concerns HCC-2998 colon.
The test system of experiment [5] is 786-0 renal.
The test system of experiment [6] is SW-620 colon.
Experiment [7] deals with UO-31 renal.
For experiment [8], the system named is HL-60(TB) leukemia.
Experiment [9] has as its system ACHN renal.
For experiment [10], the system named is U251 CNS.

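Each compound was tested at five concentrations against cells in 96-well plates for 48 hours. The concentration for 50% growth inhibition is given as GI50. TGI denotes the concentration required for complete inhibition of growth.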

With `C[C@H](CS(C)(=O)=O)Nc1ncc2cc(Oc3ccc(F)cc3F)c(=O)n(C)c2n1`, the GI50 in experiment [1], in [2], in experiment [3], in [4], in experiment [5] and in [6] was over 25 µM throughout. Moreover, the GI50 in experiment [7], in experiment [8], in experiment [9] and in experiment [10] was over 25 µM each time. For the same compound, the TGI in experiment [1], in [2], in experiment [3], in experiment [4], in experiment [5] and in experiment [6] was over 25 µM in each case. Moreover, the TGI in [7], in [8], in [9] and in experiment [10] was over 25 µM in each case.

Turning to `Cn1cc(-c2ccc(CNc3cc(-c4cnc5cc(OCCCN6CCCC6)ccn45)ncn3)cc2)cn1`, the GI50 was 2.81 µM in [1]; 1.73 µM in [2]; 1.9 µM in experiment [3]; 2.21 µM in [4]; 1.49 µM in experiment [5]; 1.61 µM in experiment [6]. The GI50 in experiment [7] was 1.41 µM; in experiment [8], 2.31 µM; in experiment [9], 1.78 µM; in experiment [10] it was 1.43 µM. In addition, the TGI worked out at 12 µM in experiment [1]; 3.49 µM in experiment [2]; 4.13 µM in experiment [3]; 5.71 µM in experiment [4]; 2.91 µM in [5]; 3.17 µM in experiment [6]. Also, the TGI in [7] is 2.82 µM; in [8], 6.94 µM; in [9], 3.22 µM; in experiment [10] it was 2.77 µM.

On to `C/C1=C\CC[C@@](C)(O)[C@@H]2CC3[C@@H](OC(=O)C34CC4)[C@@H](O2)[C@H](C)CCC1` (stereo not given in full), for which the GI50 in [1] was 23.7 µM; in experiment [2], 24.5 µM; in experiment [3], 20.1 µM; in experiment [4], 14.7 µM; in experiment [5] it was 16.2 µM; in experiment [6] it was 35.2 µM. The GI50 in [7] is 15.3 µM; in experiment [8] it was 42.4 µM; in [9], 16.9 µM; in [10], 19.9 µM. The TGI in experiment [1] is 58 µM; in experiment [2] it was 77.6 µM; in experiment [3], 39.6 µM; in [4], 27.8 µM; in [5], 29.8 µM; in [6], over 100 µM. In addition, the TGI in experiment [7] is 29.9 µM; in [8] it was over 100 µM; in experiment [9], 35.1 µM; in [10], 42.7 µM.

Turning to `CC(C)OC(=O)c1ccc2[nH]c(O)c(C(=Nc3ccc(N(C)C(=O)CN4CCN(C)CC4)cc3)c3ccccc3)c2c1`, the GI50 is 0.372 µM in [1]; 0.389 µM in [2]; 0.55 µM in [3]; 0.792 µM in [4]; 0.327 µM in experiment [5]; 0.369 µM in experiment [6]. For the same compound, the GI50 was 0.278 µM in experiment [7], 0.357 µM in experiment [8], 0.332 µM in experiment [9] and 0.622 µM in experiment [10]. In addition, the TGI was 1.52 µM in [1]; 2.18 µM in experiment [2]; 2.02 µM in [3]; 2.21 µM in [4]; 1.97 µM in [5]; 1.62 µM in experiment [6]. Moreover, the TGI in experiment [7] came out at 1.31 µM; in [8], 1.18 µM; in experiment [9], 1.4 µM; in [10] it was 2.4 µM.

As for `CC1=CC(=O)C(C(C)=Nc2ccccc2Cl)C(=O)O1` (stereo not given), the GI50 in experiment [1], in experiment [2], in experiment [3], in [4], in experiment [5] and in [6] was over 100 µM throughout. The GI50 in experiment [7], in experiment [8], in [9] and in experiment [10] was over 100 µM each time. Moreover, the TGI in experiment [1], in experiment [2], in experiment [3], in experiment [4], in experiment [5] and in [6] was over 100 µM throughout. Moreover, the TGI in experiment [7], in [8], in experiment [9] and in experiment [10] was over 100 µM each time.

With `CCOC(=O)c1cnn(-c2ccnc3c(C(F)(F)F)cccc23)c1N`, the GI50 in experiment [1], in [2], in experiment [3], in experiment [4], in [5] and in experiment [6] was over 100 µM in each case. In addition, the GI50 in experiment [7], in [8], in experiment [9] and in experiment [10] was over 100 µM in each case. Also, the TGI in experiment [1], in experiment [2], in [3], in experiment [4], in experiment [5] and in experiment [6] was over 100 µM each time. Moreover, the TGI in experiment [7], in experiment [8], in experiment [9] and in experiment [10] was over 100 µM in each case.

As to `Fc1ccc(Nc2nccc(-c3c(-c4ccc(C(F)(F)F)cc4)nn4ncccc34)n2)cc1F`, the GI50 in experiment [1], in [2], in experiment [3], in experiment [4], in experiment [5] and in experiment [6] was over 25 µM throughout. The GI50 in experiment [7], in experiment [8], in experiment [9] and in experiment [10] was over 25 µM in each case. Moreover, the TGI in experiment [1], in experiment [2], in [3], in experiment [4], in experiment [5] and in [6] was over 25 µM each time. Besides, the TGI in experiment [7], in [8], in experiment [9] and in experiment [10] was over 25 µM each time.
